Test results as given in ChEMBL document CHEMBL1128494, “Synthesis and sigma binding properties of 1'- and 3'-halo- and 1',3'-dihalo-N-normetazocine analogues” (J Med Chem, 1995).

Target: Sigma non-opioid intracellular receptor 1 (Rattus norvegicus) (UniProt Q9R0C9)
Assay: Ratio of the binding affinity against Sigma receptor type 2 to that of Sigma receptor type 1

Sequence of Sigma non-opioid intracellular receptor 1 (Rattus norvegicus) (Q9R0C9 whole entry): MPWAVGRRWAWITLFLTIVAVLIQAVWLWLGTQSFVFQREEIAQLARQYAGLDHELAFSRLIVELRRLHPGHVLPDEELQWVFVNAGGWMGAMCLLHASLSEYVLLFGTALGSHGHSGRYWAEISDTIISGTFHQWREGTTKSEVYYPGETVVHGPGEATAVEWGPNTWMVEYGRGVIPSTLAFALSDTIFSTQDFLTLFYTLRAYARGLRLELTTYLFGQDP

In the case of CC1C2Cc3cc(Br)c(O)cc3C1(C)CCN2Cc1ccccc1 (stereo unspecified), the Ratio is reported as 18.
Compound CC1C2Cc3cc(Cl)c(O)c(Cl)c3C1(C)CCN2Cc1ccccc1 (stereo unspecified) has a Ratio of 30.
CC1C2Cc3ccc(O)cc3C1(C)CCN2Cc1ccccc1 (stereo unspecified) was tested, and the Ratio was 2600.
CC(C)=CCN1CCC2(C)c3c(cc(Br)c(O)c3Br)CC1C2C (single isomer, unassigned; (+)) was tested, and the Ratio was 1.8.
Work on CC(C)=CCN1CCC2(C)c3cc(O)c(Br)cc3CC1C2C (single isomer, unassigned; (+)) yielded a Ratio of 3.2.
Work on CC1C2Cc3cc(Br)c(O)c(Br)c3C1(C)CCN2Cc1ccccc1 (single isomer, unassigned; (+)) yielded a Ratio of 28.
Compound CC1C2Cc3ccc(O)c(Br)c3C1(C)CCN2Cc1ccccc1 (single isomer, unassigned; (+)) has a Ratio of 200.
In the case of CC1C2Cc3ccc(O)c(Cl)c3C1(C)CCN2Cc1ccccc1 (single isomer, unassigned; (+)), the Ratio is reported as 440.
CC(C)=CCN1CCC2(C)c3cc(O)c(Br)cc3CC1C2C (single isomer, unassigned; (-)) showed a Ratio of 1.9.
Work on CC(C)=CCN1CCC2(C)c3cc(O)c(I)cc3CC1C2C (stereo in doubt; (+)-5b) yielded a Ratio of 0.24.
CC(C)=CCN1CCC2(C)c3cc(O)c(I)cc3CC1C2C (stereo in doubt; (-)-5b) was tested, and the Ratio was 2.7.
